This passage reports melting point and Ki results from patent US6586592B2, “Bis-arylsulfones” (Pharmacia & Upjohn Company, priority 2000, dated 2003).

In series [1] the target is T1, cloned human 5-HT6 receptor (Homo sapiens, UniProt P50406).
T1 construct: membrane preparation
Put plainly: 5-HT6 receptor binding assay ([3H]-LSD radioligand, SPA beads). The following applies: membranes of Hela cells containing cloned human 5-HT6 receptor, IC50 converted to Ki by Cheng-Prusoff. How it is done:
5-HT6 Receport Binding Assay
Growth of Cells and Membrane Preparation
Harvested intact cells are washed once in cold phosphate-buffered saline. The cells are pelleted and resuspended in 100 ml of cold 50 mM Tris, 5 mM EDTA and 5 mM EGTA, pH 7.4. Homogenization is with a Vir Tishear generator, 4 cycles for 30 seconds each at setting 50. The homogenized cells are centrifuged at 700 RPM (1000×g) for 10 minutes and the supernatant is removed. […] The rehomogenized cells are then centrifuged at 700 RPM (1000×g) for 10 minutes and the supernatant is removed. […] The membrane pellet is resupended in 50-8-ml of assay buffer containing HEPES 20 mM, MgCl2 10 mM, NaCl 150 mM, EDTA 1 mM, pH 7.4 and stored frozen in aliqouts at −70° C.
5-HT6 Receptor Binding Assay
The radioligand binding assay used [^3H]-lysergic acid diethylamide (LSD). The assay is carried out in Wallac 96-well sample plates by the addition of 11 μl of the test sample at the appropriate dilution (the assay employed 11 serial concentrations of samples run in duplicate), 11 μl of radioligand, and 178 μl of a washed mixture of WGA-coated SPA beads and membranes in binding buffer. The plates are shaken for about 5 minutes and then incubated at room temperature for 1 hour. The plates are then loaded into counting cassettes and counted in a Wallac MicroBeta Trilux scintillation counter.
Binding Constant (Ki) Determination
Eleven serial dilutions of test compounds are distributed to assay plates using the PE/Cetus Pro/Pette pipetter. These dilutions were, followed by radioligand and the bead-membrane mixture prepared as described above. The specifically bound cpm obtained are fit to a one-site binding model using GraphPad Prism ver. 2.0.

pKi: −log10 of the molar value. Where a name gives a salt, the structure may show the parent alone.

T1 sequence (P50406 whole entry): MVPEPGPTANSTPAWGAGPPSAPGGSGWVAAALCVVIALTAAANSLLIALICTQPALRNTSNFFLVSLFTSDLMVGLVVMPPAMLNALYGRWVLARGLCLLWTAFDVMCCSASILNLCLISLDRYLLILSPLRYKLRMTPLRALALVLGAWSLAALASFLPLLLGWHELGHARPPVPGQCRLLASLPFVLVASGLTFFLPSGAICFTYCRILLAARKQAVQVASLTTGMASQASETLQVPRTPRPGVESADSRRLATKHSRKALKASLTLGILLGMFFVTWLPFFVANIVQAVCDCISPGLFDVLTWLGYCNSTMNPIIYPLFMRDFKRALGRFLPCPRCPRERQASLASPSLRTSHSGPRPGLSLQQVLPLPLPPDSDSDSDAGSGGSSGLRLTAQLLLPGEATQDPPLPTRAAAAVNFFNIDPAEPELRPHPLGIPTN

What is called melting point is the temperature, or range, at which the solid turns liquid. As for `CNc1cc(N2CCCNCC2)ccc1S(=O)(=O)c1cccc(F)c1.Cl`, the melting point is 153 to 154 °C.
On the same count and under the same terms, for `Nc1cc(N2CCNCC2)ccc1S(=O)(=O)c1ccccc1` (as salt: salt) [Example 1, 2-(phenylsulfonyl)-5-(1-piperazinyl)phenylamine] the value was 165 to 166 °C.
As a reminder, the pKi is the Ki on a negative log10 scale, so that one unit is a factor of ten. A high value points to a low Ki. Consider `Nc1cc(N2CCNCC2)ccc1S(=O)(=O)c1ccccc1` [Example 1, 2-(phenylsulfonyl)-5-(1-piperazinyl)phenylamine], for which, in series [1], the pKi is 8.59.
Compound `Cl.Nc1cc(N2CCCNCC2)ccc1S(=O)(=O)c1cccc(F)c1` [Example 2, 5-(1,4-diazepan-1-yl)-2-[(3-fluorophenyl)sulfonyl]phenylamine] had a melting point of 106 to 108 °C.
Compound `Nc1cc(N2CCNCC2)ccc1S(=O)(=O)c1ccc(F)cc1` [Example 3, 2-[(4-fluorophenyl)sulfonyl]-5-(1-piperazinyl) Phenylamine] showed a pKi in series [1] of 7.51.
`CN1CCN(c2ccc(S(=O)(=O)c3ccc(F)cc3)c(N)c2)CC1.Cl` [Example 4, 2-[(4-fluorophenyl)sulfonyl]-5-(4-methyl-1-piperazinyl) Phenylamine]: the melting point was 85 to 89 °C. The compound further had a pKi in series [1] of 7.49.
Turning to `Cc1ccc(S(=O)(=O)c2ccc(N3CCNCC3)cc2N)cc1` [Example 5, 2-[(4-methylphenyl)sulfonyl]-5-(1-piperazinyl) Phenylamine], the melting point lay within 102 to 106 °C. This compound also had a pKi in series [1] of 7.64.
Compound `Cc1ccc(S(=O)(=O)c2ccc(N3CCN(C)CC3)cc2N)cc1` [Example 6, 2-[(4-methylphenyl)sulfonyl]-5-(4-methyl-1-piperazinyl) Phenylamine] had a melting point of 148 to 151 °C. The same compound gave a pKi in series [1] of 7.17.
The matching figures for `CN1CCN(c2ccc(S(=O)(=O)c3ccccc3)c(N)c2)CC1.Cl` [Example 7, 5-(4-methyl-1-piperazinyl)-2-(phenylsulfonyl) Phenylamine]: 90 to 93 °C and 8.44.
In the case of `CN1CCN(c2ccc(S(=O)(=O)c3cccc(F)c3)c(N)c2)CC1.Cl` [Example 8, 2-[(3-fluorophenyl)sulfonyl]-5-(4-methyl-1-piperazinyl) Phenylamine], the melting point was 89 to 92 °C. Also, the negative logarithm of the Ki (pKi) in series [1] is 8.28.
For the compound `Nc1cc(N2CCCNCC2)ccc1S(=O)(=O)c1ccc(F)c(F)c1` [Example 9, 5-(1,4-diazepan-1-yl)-2-[(3,4-difluorophenyl)sulfonyl]phenylamine], in series [1], the negative-log Ki (pKi) was 7.10.
As for `Nc1cc(N2CCCNCC2)ccc1S(=O)(=O)c1ccccc1` [Example 10, 5-(1,4-diazepan-1-yl)-2-(phenylsulfonyl) Phenylamine], the pKi in series [1] was 7.96.
Same read-out and setting: for `Nc1cc(N2CCCNCC2)ccc1S(=O)(=O)c1cc(F)cc(F)c1` [Example 11, 5-(1,4-diazepan-1-yl)-2-[(3,5-difluorophenyl)sulfonyl]phenylamine] the value was 7.96.
For the compound `CCNc1cc(N2CCNCC2)ccc1S(=O)(=O)c1ccccc1.Cl` [Example 13, N-ethyl-2-(phenylsulfonyl)-5-(1-piperazinyl) Phenylamine], the melting point lay in the range of 121 to 123 °C.
